Experimental data reported in EPA's ToxRefDB 2.

How the values were obtained:
dog [1] = conditions: Chronic toxicity, beagle, Oral, Feed, dose end: 52 week, group: systemic
dog [2] = conditions: Subchronic oral toxicity in nonrodent, beagle, Feed, dose end: 3 month, group: systemic
rat [3] = conditions: Prenatal developmental toxicity study, other, Oral, Gavage/Intubation, dose end: 15 GD
rat [4] = conditions: Subchronic oral toxicity in rodents, Feed, dose end: 13 week, group: systemic
rat [5] = conditions: Combined chronic toxicity/carcinogenicity, sprague dawley, Oral, Feed, dose end: 2 year, group: systemic
mouse [6] = conditions: Subchronic oral toxicity in rodents, cd1, Feed, dose end: 3 month, group: systemic
mouse [7] = conditions: Carcinogenicity; cd1; Oral; Feed; dose end: 78 week; group: systemic; systemic / organ weight / liver / nos + systemic / pathology microscopic / liver / hypertrophy + systemic / pathology microscopic / liver / …
rat [8] = conditions: Multigenerational reproductive toxicity study, sprague dawley, Oral, Feed, dose end: 2 generation
rabbit [9] = conditions: Prenatal developmental toxicity study, chinchilla, Oral, Gavage/Intubation, dose end: 18 GD
mouse [10] = conditions: Combined chronic toxicity/carcinogenicity, b6c3f1, Oral, Feed, dose end: 102 week
rabbit [11] = conditions: Prenatal developmental toxicity study, dutch, Oral, Gavage/Intubation, dose end: 18 GD
rat [12] = conditions: Combined chronic toxicity/carcinogenicity, fischer, Oral, Feed, dose end: 2 year
dog [13] = conditions: Chronic toxicity; beagle; Oral; Feed; dose end: 53 week; group: cholinesterase; cholinesterase / cholinesterase / cholinesterase / erythrocyte cholinesterase (che) + cholinesterase / cholinesterase / cholinesterase / …
rat [14] = conditions: Multigenerational reproductive toxicity study, sprague dawley, Oral, Feed, dose end: 2 generation; remark: listed apart in the source
mouse [15] = conditions: Combined chronic toxicity/carcinogenicity, b6c3f1, Oral, Feed, dose end: 2 year, group: systemic
rat [16] = conditions: Subchronic oral toxicity in rodents, fischer, Feed, dose end: 13 week, group: systemic, systemic / in life observation / body weight / body weight
rat [17] = conditions: Prenatal developmental toxicity study, sprague dawley, Oral, Gavage/Intubation, dose end: 15 GD
rat [18] = conditions: Subchronic dermal toxicity, sprague dawley, Topical, dose end: 13 week, group: systemic, systemic / in life observation / clinical signs / erythema
[19] = systemic / in life observation / body weight / body weight gain
[20] = systemic / in life observation / body weight / body weight gain + systemic / clinical chemistry / alkaline phosphatase (alp/alk) / alkaline …
[21] = systemic / pathology microscopic / liver / hypertrophy
[22] = systemic / pathology microscopic / liver / hypertrophy + systemic / clinical chemistry / alkaline phosphatase (alp/alk) / alkaline …
[23] = group: developmental, developmental / developmental malformation / bone / short supernumerary + systemic / in life observation / body weight / fetal weight
[24] = group: maternal, reproductive / reproductive performance / implantations / implantations + reproductive / reproductive performance / resorptions / …
[25] = systemic / pathology microscopic / liver / vacuolization
[26] = systemic / pathology microscopic / liver / vacuolization + systemic / clinical chemistry / cholesterol / cholesterol + systemic / clinical …
[27] = systemic / hematology / hematocrit (hct) / hematocrit (hct) + systemic / hematology / hemoglobin (hgb) / hemoglobin (hgb) + systemic / …
[28] = systemic / pathology microscopic / liver / hypertrophy + systemic / clinical chemistry / alanine aminotransferase (alt/sgpt) / alanine …
[29] = group: offspring, developmental / offspring survival late / viability index / viability index + systemic / in life observation / body weight / offspring (pup…
[30] = group: parental, systemic / in life observation / body weight / body weight + systemic / in life observation / food consumption / food consumption + systemic…
[31] = group: reproductive, reproductive / reproductive performance / dystocia / dystocia + reproductive / reproductive performance / gestational length / gestational …
[32] = group: developmental, systemic / in life observation / body weight / fetal weight
[33] = group: maternal, reproductive / reproductive performance / resorptions / resorptions
[34] = group: maternal, reproductive / reproductive performance / resorptions / resorptions + reproductive / reproductive performance / aborted / aborted + …
[35] = group: cholinesterase, cholinesterase / cholinesterase / cholinesterase / plasma cholinesterase (che)
[36] = group: systemic, systemic / in life observation / body weight / body weight
[37] = group: systemic, systemic / in life observation / body weight / body weight + systemic / clinical chemistry / cholesterol / cholesterol + systemic / organ …
[38] = group: cholinesterase, cholinesterase / cholinesterase / cholinesterase / brain cholinesterase (che) + cholinesterase / cholinesterase / cholinesterase / …
[39] = group: developmental, systemic / in life observation / body weight / fetal weight + developmental / developmental malformation / bone / unossified
[40] = group: maternal, systemic / in life observation / clinical signs / soft stools
[41] = group: maternal, systemic / in life observation / clinical signs / soft stools + reproductive / reproductive performance / resorptions / resorptions + …
[42] = group: systemic, systemic / in life observation / clinical signs / alopecia + systemic / in life observation / clinical signs / soft stools + systemic / in …
[43] = group: offspring, developmental / offspring survival late / [other] / [other] + developmental / offspring survival late / viability index / viability index + …
[44] = group: parental, systemic / pathology microscopic / epididymis / vacuolization
[45] = group: parental, systemic / pathology microscopic / epididymis / vacuolization + systemic / organ weight / epididymis / absolute
[46] = group: reproductive, reproductive / offspring survival early / birth index / birth index + reproductive / reproductive performance / fertility / fertility + …
[47] = systemic / in life observation / clinical signs / fur (altered appearance) + systemic / pathology microscopic / skin / fibrosarcoma + …
[48] = systemic / pathology microscopic / skin / fibrosarcoma + systemic / pathology microscopic / skin / rhabdomyosarcoma + systemic / in life …
[49] = group: maternal, systemic / in life observation / body weight / body weight gain + systemic / in life observation / clinical signs / abnormal movements + …

## N#CC(CCc1ccc(Cl)cc1)(Cn1cncn1)c1ccccc1 (stereo not given) [Fenbuconazole]
Dog [1]; [19]
  LEL: 3.75 mg/kg/day
  LOAEL: 3.75 mg/kg/day
Dog [1]; [20]
  NEL: 0.38 mg/kg/day
  NOAEL: 0.38 mg/kg/day
Dog [2]; [21]
  LOAEL: 13.3 mg/kg/day
Dog [2]; [22]
  NEL: 3.3 mg/kg/day
  NOAEL: 3.3 mg/kg/day
Dog [2]; systemic / pathology microscopic / liver / hypertrophy + systemic / organ weight / liver / absolute + systemic / organ weight / liver / …
  LEL: 13.3 mg/kg/day
Rat [3]; [23]
  LEL: 150 mg/kg/day
  LOAEL: > 150 mg/kg/day
  NEL: 75 mg/kg/day
  NOAEL: ≥ 150 mg/kg/day
Rat [3]; [24]
  LEL: 75 mg/kg/day
  LOAEL: 75 mg/kg/day
  NEL: 30 mg/kg/day
  NOAEL: 30 mg/kg/day
Rat [4]; [25]
  LEL: 5.1 mg/kg/day
  LOAEL: 5.1 mg/kg/day
Rat [4]; [26]
  NEL: 1.3 mg/kg/day
  NOAEL: 1.3 mg/kg/day
Rat [5]; systemic / hematology / hematocrit (hct) / hematocrit (hct) + systemic / hematology / hemoglobin (hgb) / hemoglobin (hgb)
  LEL: 3.03 mg/kg/day
Rat [5]; [27]
  NEL: 0.31 mg/kg/day
  NOAEL: 3.03 mg/kg/day
Rat [5]; systemic / pathology microscopic / thyroid gland / adenoma/carcinoma combined + systemic / organ weight / liver / absolute + systemic / …
  LOAEL: 30.6 mg/kg/day
Mouse [6]; [21]
  LEL: 11.1 mg/kg/day
  LOAEL: 11.1 mg/kg/day
Mouse [6]; [28]
  NEL: 3.8 mg/kg/day
  NOAEL: 3.8 mg/kg/day
Mouse [7]
  LEL: 26.3 mg/kg/day
  LOAEL: 26.3 mg/kg/day
  NEL: 1.28 mg/kg/day
  NOAEL: 1.28 mg/kg/day
Rat [8]; [29]
  LEL: 40 mg/kg/day
  LOAEL: 40 mg/kg/day
  NEL: 4 mg/kg/day
  NOAEL: 4 mg/kg/day
Rat [8]; [30]
  LOAEL: 40 mg/kg/day
  NEL: 0.4 mg/kg/day
  NOAEL: 4 mg/kg/day
Rat [8]; group: parental, systemic / organ weight / liver / absolute + systemic / organ weight / liver / relative to body weight
  LEL: 4 mg/kg/day
Rat [8]; [31]
  LEL: 40 mg/kg/day
  LOAEL: 40 mg/kg/day
  NEL: 4 mg/kg/day
  NOAEL: 4 mg/kg/day

## COP(=S)(OC)Oc1ccc(SC)c(C)c1 [Fenthion]
Rabbit [9]; [32]
  LEL: 18 mg/kg/day
  LOAEL: 18 mg/kg/day
  NEL: 6 mg/kg/day
  NOAEL: 6 mg/kg/day
Rabbit [9]; [33]
  LEL: 6 mg/kg/day
  LOAEL: 6 mg/kg/day
Rabbit [9]; [34]
  NEL: 2 mg/kg/day
  NOAEL: 2 mg/kg/day
Mouse [10]; [35]
  LEL: 0.03 mg/kg/day
  LOAEL: 0.03 mg/kg/day
  NEL: < 0.03 mg/kg/day
  NOAEL: < 0.03 mg/kg/day
Mouse [10]; [36]
  LEL: 1.95 mg/kg/day
  LOAEL: 1.95 mg/kg/day
Mouse [10]; [37]
  NEL: 0.4 mg/kg/day
  NOAEL: 0.4 mg/kg/day
Rabbit [11]; [38]
  LEL: 2.75 mg/kg/day
  LOAEL: 2.75 mg/kg/day
  NEL: 1 mg/kg/day
  NOAEL: 1 mg/kg/day
Rabbit [11]; [32]
  LEL: 2.75 mg/kg/day
Rabbit [11]; [39]
  LOAEL: > 7.5 mg/kg/day
  NEL: 1 mg/kg/day
  NOAEL: ≥ 7.5 mg/kg/day
Rabbit [11]; [40]
  LEL: 2.75 mg/kg/day
  LOAEL: 2.75 mg/kg/day
Rabbit [11]; [41]
  NEL: 1 mg/kg/day
  NOAEL: 1 mg/kg/day
Rat [12]; [38]
  LEL: 0.07 mg/kg/day
  LOAEL: 0.07 mg/kg/day
  NEL: < 0.07 mg/kg/day
  NOAEL: < 0.07 mg/kg/day
Rat [12]; [42]
  LEL: 0.3 mg/kg/day
  LOAEL: 0.3 mg/kg/day
  NEL: 0.07 mg/kg/day
  NOAEL: 0.07 mg/kg/day
Dog [13]
  LEL: 0.258 mg/kg/day
  LOAEL: 0.258 mg/kg/day
  NEL: 0.056 mg/kg/day
  NOAEL: 0.056 mg/kg/day
Rat [14]; [38]
  LEL: 0.7 mg/kg/day
  LOAEL: 0.7 mg/kg/day
  NEL: 0.1 mg/kg/day
  NOAEL: 0.1 mg/kg/day
Rat [14]; [43]
  LEL: 5 mg/kg/day
  LOAEL: > 5 mg/kg/day
  NEL: 0.7 mg/kg/day
  NOAEL: ≥ 5 mg/kg/day
Rat [14]; [44]
  LEL: 0.7 mg/kg/day
  LOAEL: 0.7 mg/kg/day
Rat [14]; [45]
  NEL: 0.1 mg/kg/day
  NOAEL: 0.1 mg/kg/day
Rat [14]; [46]
  LEL: 5 mg/kg/day
  LOAEL: > 5 mg/kg/day
  NEL: 0.7 mg/kg/day
  NOAEL: ≥ 5 mg/kg/day
Mouse [15]; [47]
  LOAEL: > 3 mg/kg/day
  NOAEL: ≥ 3 mg/kg/day
Mouse [15]; [48]
  LEL: 1.5 mg/kg/day
  NEL: < 1.5 mg/kg/day
Rat [16]
  LEL: 16 mg/kg/day
  LOAEL: 16 mg/kg/day
  NEL: 8 mg/kg/day
  NOAEL: 8 mg/kg/day

## O=[N+]([O-])C(CO)(CO)CO [2-(Hydroxymethyl)-2-nitro-1,3-propanediol]
Rat [17]; [32]
  LEL: 750 mg/kg/day
  LOAEL: > 750 mg/kg/day
  NEL: 375 mg/kg/day
  NOAEL: ≥ 750 mg/kg/day
Rat [17]; [33]
  LEL: 375 mg/kg/day
Rat [17]; [49]
  LOAEL: 750 mg/kg/day
  NEL: 50 mg/kg/day
  NOAEL: 375 mg/kg/day
Rat [18]
  LEL: 1000 mg/kg/day
  LOAEL: > 1000 mg/kg/day
  NEL: 500 mg/kg/day
  NOAEL: ≥ 1000 mg/kg/day
